Measurements taken from patent publication US20220296619A1, “PHARMACEUTICAL FORMULATIONS OF TENOFOVIR ALAFENAMIDE” (priority 2019, published 2022).
In brackets after ≈: the same amount, converted by molar mass.

Key:
[1] = cited from earlier work
[2] = Chemical stability of compositions on storage (total impurities); type: physicochemical
Text: [No. 1 in FIG. 3b is isopropyl ((R)—((((R)-1-(6-amino-9H-purin-9-yl)propan-2-yl)oxy)methyl) (phenoxy)phosphoryl)-L-alaninate]

physchem = details: water
[3] = Syringeability/injectability with various wetting agents; type: physicochemical; details: 40% TAF/60% PLGA 5050, 125 mg/mL suspension, wetting agent in minimal amounts
Description: Suspending vehicles with various wetting agents were prepared. […] A formulation 40% TAF (free base, crystalline, and micronized) and 60% PLGA 5050 was used to obtain a 125 mg/mL suspension. These suspensions were evaluated for syringeability/injectability. […] Additionally, Tween 80 could accommodate sterilization via filtration.

## Poly(D,L-lactide) [PDLLA]
[1]
  degradation time in vivo: 12-18 months

## CC(C)OC(=O)[C@H](C)N[P@](=O)(CO[C@H](C)Cn1cnc2c(N)ncnc21)Oc1ccccc1 [Free base, (S)-isopropyl-2-(((S)—((((R)-1-(6-amino-9H-purin-9-yl)propan-2-yl)oxy)methyl)(phenoxy)phosphoryl)amino)propanoate]
[2]; 40° C./75% RH closed for 2 weeks
  total impurities: 2.1%
[2]; initial
  total impurities observed initially: 2.1%
physchem
  solubility: ~3500 µg/mL (≈ 7.35 mM)

## polysorbate 80 [Tween 80]
[3]
  syringeability/injectability through a 20 G needle: improved syringeability/injectability
